Measurements as given in ChEMBL document CHEMBL5113453, “Design, synthesis, and biological evaluation of a new series of pyrazole derivatives: Discovery of potent and selective JNK3 kinase inhibitors” (Bioorg Med Chem, 2022).
pIC50: −log10 of the molar value.

Tests used:
CCRF-CEM = test: Antiproliferative activity against human CCRF-CEM cells measured after 48 hrs by SRB assay; type: functional, cell-based
K562 = test: Antiproliferative activity against human K562 cells measured after 48 hrs by SRB assay; type: functional, cell-based
MOLT-4 = test: Antiproliferative activity against human MOLT-4 cells measured after 48 hrs by SRB assay; type: functional, cell-based
RPMI-8226 = test: Antiproliferative activity against human RPMI-8226 cells measured after 48 hrs by SRB assay; type: functional, cell-based
SR = test: Antiproliferative activity against human SR cells measured after 48 hrs by SRB assay; type: functional, cell-based
A549 = test: Antiproliferative activity against human A549 cells measured after 48 hrs by SRB assay; type: functional, cell-based
HOP-62 = test: Antiproliferative activity against human HOP-62 cells measured after 48 hrs by SRB assay; type: functional, cell-based
HOP-92 = test: Antiproliferative activity against human HOP-92 cells measured after 48 hrs by SRB assay; type: functional, cell-based
NCI-H226 = test: Antiproliferative activity against human NCI-H226 cells measured after 48 hrs by SRB assay; type: functional, cell-based
NCI-H23 = test: Antiproliferative activity against human NCI-H23 cells measured after 48 hrs by SRB assay; type: functional, cell-based
NCI-H522 = test: Antiproliferative activity against human NCI-H522 cells measured after 48 hrs by SRB assay; type: functional, cell-based
HCC 2998 = test: Antiproliferative activity against human HCC 2998 cells measured after 48 hrs by SRB assay; type: functional, cell-based
HCT-116 = test: Antiproliferative activity against human HCT-116 cells measured after 48 hrs by SRB assay; type: functional, cell-based
HCT-15 = test: Antiproliferative activity against human HCT-15 cells measured after 48 hrs by SRB assay; type: functional, cell-based
HT-29 = test: Antiproliferative activity against human HT-29 cells measured after 48 hrs by SRB assay; type: functional, cell-based
KM12 = test: Antiproliferative activity against human KM12 cells measured after 48 hrs by SRB assay; type: functional, cell-based
SW-620 = test: Antiproliferative activity against human SW-620 cells measured after 48 hrs by SRB assay; type: functional, cell-based
SF-268 = test: Antiproliferative activity against human SF-268 cells measured after 48 hrs by SRB assay; type: functional, cell-based
SF-539 = test: Antiproliferative activity against human SF-539 cells measured after 48 hrs by SRB assay; type: functional, cell-based
SNB-75 = test: Antiproliferative activity against human SNB-75 cells measured after 48 hrs by SRB assay; type: functional, cell-based
Malme-3M = test: Antiproliferative activity against human Malme-3M cells measured after 48 hrs by SRB assay; type: functional, cell-based
SK-MEL-2 = test: Antiproliferative activity against human SK-MEL-2 cells measured after 48 hrs by SRB assay; type: functional, cell-based
SK-MEL-28 = test: Antiproliferative activity against human SK-MEL-28 cells measured after 48 hrs by SRB assay; type: functional, cell-based
UACC-62 = test: Antiproliferative activity against human UACC-62 cells measured after 48 hrs by SRB assay; type: functional, cell-based
OVCAR-3 = test: Antiproliferative activity against human OVCAR-3 cells measured after 48 hrs by SRB assay; type: functional, cell-based
OVCAR-4 = test: Antiproliferative activity against human OVCAR-4 cells measured after 48 hrs by SRB assay; type: functional, cell-based
OVCAR-5 = test: Antiproliferative activity against human OVCAR-5 cells measured after 48 hrs by SRB assay; type: functional, cell-based
OVCAR-8 = test: Antiproliferative activity against human OVCAR-8 cells measured after 48 hrs by SRB assay; type: functional, cell-based
NCI/ADR-RES = test: Antiproliferative activity against human NCI-ADR-RES cells measured after 48 hrs by SRB assay; type: functional, cell-based
A498 = test: Antiproliferative activity against human A498 cells measured after 48 hrs by SRB assay; type: functional, cell-based
ACHN = test: Antiproliferative activity against human ACHN cells measured after 48 hrs by SRB assay; type: functional, cell-based
RXF 393 = test: Antiproliferative activity against human RXF 393 cells measured after 48 hrs by SRB assay; type: functional, cell-based
SN12C = test: Antiproliferative activity against human SN12C cells measured after 48 hrs by SRB assay; type: functional, cell-based
UO-31 = test: Antiproliferative activity against human UO-31 cells measured after 48 hrs by SRB assay; type: functional, cell-based
PC-3 = test: Antiproliferative activity against human PC-3 cells measured after 48 hrs by SRB assay; type: functional, cell-based
DU-145 = test: Antiproliferative activity against human DU-145 cells measured after 48 hrs by SRB assay; type: functional, cell-based
MDA-MB-468 = test: Antiproliferative activity against human MDA-MB-468 cells measured after 48 hrs by SRB assay; type: functional, cell-based
WI-38 = test: Antiproliferative activity against human WI-38 cells measured by MTT assay; type: functional, cell-based
[1] = target: Mitogen-activated protein kinase 10 (Homo sapiens, UniProt P53779); test: Inhibition of JNK3 (unknown origin) at 1 uM relative to control
Sequence of Mitogen-activated protein kinase 10 (P53779 whole entry): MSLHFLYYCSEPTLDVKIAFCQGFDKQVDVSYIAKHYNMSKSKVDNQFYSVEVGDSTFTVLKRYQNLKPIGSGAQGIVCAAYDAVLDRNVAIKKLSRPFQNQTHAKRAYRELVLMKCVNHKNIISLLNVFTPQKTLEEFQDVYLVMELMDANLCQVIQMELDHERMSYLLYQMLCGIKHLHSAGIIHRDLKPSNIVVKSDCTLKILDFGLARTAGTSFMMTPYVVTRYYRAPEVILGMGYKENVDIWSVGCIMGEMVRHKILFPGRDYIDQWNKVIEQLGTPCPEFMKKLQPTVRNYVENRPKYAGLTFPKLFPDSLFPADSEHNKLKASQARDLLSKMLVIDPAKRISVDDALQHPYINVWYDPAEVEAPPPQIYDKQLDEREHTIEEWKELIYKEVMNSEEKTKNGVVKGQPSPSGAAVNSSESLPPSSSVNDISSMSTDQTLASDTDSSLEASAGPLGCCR

For `COc1cccc(-c2nn(-c3ccccc3)cc2-c2ccnc(NCCCNC(=O)Nc3ccc(F)cc3)c2)c1`, the pIC50 (CCRF-CEM; 48 h) was 5.07, the TGI (CCRF-CEM; time 48 hrs) was 31.5 µM and the pIC50 (K562; K562, 48 h) was 5.53. It also gave a TGI (K562; K562, time 48 hrs) of over 37 µM, a pIC50 (MOLT-4; MOLT-4, 48 h) of 5.40 and a TGI (MOLT-4; MOLT-4, time 48 hrs) of 19 µM. For the same compound, the pIC50 (RPMI-8226; RPMI-8226, 48 h) was 5.22, the TGI (RPMI-8226; RPMI-8226, time 48 hrs) was 24.6 µM and the pIC50 (SR; 48 h) was 5.11. For the same compound, the TGI (SR; time 48 hrs) was over 37 µM, the pIC50 (A549; A549, 48 h) was 5.00 and the TGI (A549; A549, time 48 hrs) was over 37 µM. For the same compound, the pIC50 (HOP-62; HOP-62, 48 h) was 4.83, the TGI (HOP-62; HOP-62, time 48 hrs) was over 37 µM and the pIC50 (HOP-92; HOP-92, 48 h) was 5.20. For the same compound, the TGI (HOP-92; HOP-92, time 48 hrs) was 31.1 µM, the pIC50 (NCI-H226; NCI-H226, 48 h) was 4.97 and the TGI (NCI-H226; NCI-H226, time 48 hrs) was over 37 µM. The pIC50 (NCI-H23; NCI-H23, 48 h) was 5.00, the TGI (NCI-H23; NCI-H23, time 48 hrs) was over 37 µM and the pIC50 (NCI-H522; NCI-H522, 48 h) was 5.29. The TGI (NCI-H522; NCI-H522, time 48 hrs) was 12 µM, the pIC50 (HCC 2998; HCC 2998, 48 h) was 5.13 and the TGI (HCC 2998; HCC 2998, time 48 hrs) was 20 µM. It also gave a pIC50 (HCT-116; HCT-116, 48 h) of 5.24, a TGI (HCT-116; HCT-116, time 48 hrs) of 17 µM and a pIC50 (HCT-15; HCT-15, 48 h) of 5.12. The TGI (HCT-15; HCT-15, time 48 hrs) was over 37 µM, the pIC50 (HT-29; HT-29, 48 h) was 5.14 and the TGI (HT-29; HT-29, time 48 hrs) was 18.2 µM. It also gave a pIC50 (KM12; KM12, 48 h) of 4.98, a TGI (KM12; KM12, time 48 hrs) of over 37 µM and a pIC50 (SW-620; SW-620, 48 h) of 5.10. For the same compound, the TGI (SW-620; SW-620, time 48 hrs) was over 37 µM, the pIC50 (SF-268; SF-268, 48 h) was 5.15 and the TGI (SF-268; SF-268, time 48 hrs) was 30 µM. It also gave a pIC50 (SF-539; SF-539, 48 h) of 5.20, a TGI (SF-539; SF-539, time 48 hrs) of 13.4 µM and a pIC50 (SNB-75; SNB-75, 48 h) of 5.38. For the same compound, the TGI (SNB-75; SNB-75, time 48 hrs) was 22.7 µM, the pIC50 (Malme-3M; 48 h) was 5.26 and the TGI (Malme-3M; time 48 hrs) was 10.6 µM. It also gave a pIC50 (SK-MEL-2; SK-MEL-2, 48 h) of 5.20, a TGI (SK-MEL-2; SK-MEL-2, time 48 hrs) of 12.6 µM and a pIC50 (SK-MEL-28; SK-MEL-28, 48 h) of 5.18. For the same compound, the TGI (SK-MEL-28; SK-MEL-28, time 48 hrs) was 15.5 µM, the pIC50 (UACC-62; UACC-62, 48 h) was 5.12 and the TGI (UACC-62; UACC-62, time 48 hrs) was 24.2 µM. The pIC50 (OVCAR-3; OVCAR-3, 48 h) was 5.21, the TGI (OVCAR-3; OVCAR-3, time 48 hrs) was over 37 µM and the pIC50 (OVCAR-4; OVCAR-4, 48 h) was 4.98. It also gave a TGI (OVCAR-4; OVCAR-4, time 48 hrs) of over 37 µM, a pIC50 (OVCAR-5; OVCAR-5, 48 h) of 4.95 and a TGI (OVCAR-5; OVCAR-5, time 48 hrs) of over 37 µM. The pIC50 (OVCAR-8; OVCAR-8, 48 h) was 4.97, the TGI (OVCAR-8; OVCAR-8, time 48 hrs) was over 37 µM and the pIC50 (NCI/ADR-RES; 48 h) was 5.14. The TGI (NCI/ADR-RES; time 48 hrs) was 25.4 µM, the pIC50 (A498; A498, 48 h) was 5.13 and the TGI (A498; A498, time 48 hrs) was 31.4 µM. For the same compound, the pIC50 (ACHN; 48 h) was 4.97, the TGI (ACHN; time 48 hrs) was over 37 µM and the pIC50 (RXF 393; RXF 393, 48 h) was 5.22. It also gave a TGI (RXF 393; RXF 393, time 48 hrs) of 28.6 µM, a pIC50 (SN12C; 48 h) of 5.01 and a TGI (SN12C; time 48 hrs) of over 37 µM. The pIC50 (UO-31; UO-31, 48 h) was 5.29, the TGI (UO-31; UO-31, time 48 hrs) was over 37 µM and the pIC50 (PC-3; PC-3, 48 h) was 5.21. The TGI (PC-3; PC-3, time 48 hrs) was over 37 µM, the pIC50 (DU-145; DU-145, 48 h) was 4.85 and the TGI (DU-145; DU-145, time 48 hrs) was over 37 µM. For the same compound, the pIC50 (MDA-MB-468; MDA-MB-468, 48 h) was 5.32, the TGI (MDA-MB-468; MDA-MB-468, time 48 hrs) was 13 µM and the pIC50 (WI-38) was under 4.70. For the same compound, the inhibition [1] was 3%.
